Measured values reported in publication PMC8373063 (2021).

Legend:
[1] = tested on: DNA Seq6 (DNA, single strand) TGAAGGAAGGT; test: ITC; conditions: 100 mM NaCl; 30 mM MES pH 6.1, 5% DMSO, 25 °C
[2] = tested on: RNA Seq7 (RNA, single strand) UUAAGGAAGGU; test: fluorescence polarization; conditions: 100 mM NaCl; 20 mM HEPES, 25 °C; 0.5 μM SMN-C2
[3] = tested on: RNA Seq9 (RNA, single strand) UUAAGGAAGUU; test: fluorescence polarization; conditions: 100 mM NaCl; 20 mM HEPES, 25 °C; 0.5 μM SMN-C2
[4] = tested on: RNA Seq10 (RNA, single strand) UAAAGGAAGGU; test: fluorescence polarization; conditions: 100 mM NaCl; 20 mM HEPES, 25 °C; 0.5 μM SMN-C2
[5] = tested on: RNA Seq12 (RNA, single strand) UGAAAGAAGGU; test: fluorescence polarization; conditions: 100 mM NaCl; 20 mM HEPES, 25 °C; 0.5 μM SMN-C2
[6] = tested on: RNA Seq14 (RNA, single strand) AGAAGGUAGGU; test: fluorescence polarization; conditions: 100 mM NaCl; 20 mM HEPES, 25 °C; 0.5 μM SMN-C2
[7] = tested on: RNA Seq15 (RNA, single strand) UGAAGGAUGGU; test: fluorescence polarization; conditions: 100 mM NaCl; 20 mM HEPES, 25 °C; 0.5 μM SMN-C2
[8] = tested on: DNA Seq6 (DNA, single strand) TGAAGGAAGGT; test: fluorescence polarization; conditions: 100 mM NaCl, 1 mM MgCl2; 20 mM HEPES, 25 °C; 0.5 μM SMN-C2
[9] = tested on: DNA Seq9 (DNA, single strand) TTAAGGAAGTT; test: fluorescence polarization; conditions: 100 mM NaCl, 1 mM MgCl2; 20 mM HEPES, 25 °C; 0.5 μM SMN-C2
[10] = tested on: DNA Seq15 (DNA, single strand) TGAAGGATGGT; test: fluorescence polarization; conditions: 100 mM NaCl, 1 mM MgCl2; 20 mM HEPES, 25 °C; 0.5 μM SMN-C2
[11] = tested on: DNA Seq17 (DNA, single strand) TGAAGGAAGAT; test: fluorescence polarization; conditions: 100 mM NaCl, 1 mM MgCl2; 20 mM HEPES, 25 °C; 0.5 μM SMN-C2
[12] = tested on: DNA S18 (DNA, single strand) AAAAGGAGGAAGGTGCTC; test: fluorescence polarization; conditions: 100 mM NaCl, 1 mM MgCl2; 20 mM HEPES, 25 °C; 0.5 μM SMN-C2
[13] = tested on: DNA S19 (DNA, single strand) AAAAGAGGGAAGGTGCTC; test: fluorescence polarization; conditions: 100 mM NaCl, 1 mM MgCl2; 20 mM HEPES, 25 °C; 0.5 μM SMN-C2
[14] = tested on: S6 (DNA, single strand) AAAAGAAGGAGGGTGCTC; test: fluorescence polarization; conditions: 100 mM NaCl, 1 mM MgCl2; 20 mM HEPES, 25 °C, 0.5 μM compound
[15] = tested on: S7 (DNA, single strand) AATAGAAGGAAGGTGCTC; test: fluorescence polarization; conditions: 100 mM NaCl, 1 mM MgCl2; 20 mM HEPES, 25 °C, 0.5 μM compound
[16] = tested on: S15 (DNA, single strand) AAAAGAAGGAATGTGCTC; test: fluorescence polarization; conditions: 100 mM NaCl, 1 mM MgCl2; 20 mM HEPES, 25 °C, 0.5 μM compound
[17] = tested on: S17 (DNA, single strand) AAAGGAAGGAAGGTGCTC; test: fluorescence polarization; conditions: 100 mM NaCl, 1 mM MgCl2; 20 mM HEPES, 25 °C, 0.5 μM compound
[18] = tested on: S25 (DNA, single strand) AAAAGAAGGAAGATGCTC; test: fluorescence polarization; conditions: 100 mM NaCl, 1 mM MgCl2; 20 mM HEPES, 25 °C, 0.5 μM compound
[19] = tested on: DNA Seq20 (DNA, hairpin) TGAAGGAAGGTTTCGACCTTCCTTCA; test: fluorescence polarization; conditions: 100 mM NaCl, 1 mM MgCl2; 20 mM HEPES, 25 °C, 0.5 μM compound
[20] = tested on: RNA Seq20 (RNA, hairpin) UGAAGGAAGGUUUCGACCUUCCUUCA; test: fluorescence polarization; conditions: 100 mM NaCl; 20 mM HEPES, 25 °C, 0.5 μM compound
[21] = tested on: RNA Seq21 (RNA, hairpin) GCGCCGACUGAAGGAAGGAGUCGGCGC; test: fluorescence polarization; conditions: 100 mM NaCl; 20 mM HEPES, 25 °C, 0.5 μM compound
[22] = tested on: DNA Seq22 (DNA, other) GTGCCAGTTCGCTGGCACTGAAGGAAGGT; test: fluorescence polarization; conditions: 100 mM NaCl, 1 mM MgCl2; 20 mM HEPES, 25 °C, 0.5 μM compound
[23] = tested on: DNA Seq23 (DNA, mismatch bulge abasic) GCCAGGCGCACTTTCGAGTGCGCGAAGGAAGGCTGGC; test: fluorescence polarization; conditions: 100 mM NaCl, 1 mM MgCl2; 20 mM HEPES, 25 °C, 0.5 μM compound
[24] = tested on: RNA Seq23 (RNA, mismatch bulge abasic) GCCAGGCGCACUUUCGAGUGCGCGAAGGAAGGCUGGC; test: fluorescence polarization; conditions: 100 mM NaCl; 20 mM HEPES, 25 °C, 0.5 μM compound

Kd [1]: 4.8 µM | Kd [2]: 42.3 ± 13.3 µM | Kd [3]: > 100 µM | Kd [4]: > 100 µM | Kd [5]: > 100 µM | Kd [6]: 9.9 ± 0.8 µM | Kd [7]: 9.4 ± 0.5 µM | Kd [8]: 3.1 ± 0.7 µM | Kd [9]: > 100 µM | Kd [10]: 41.1 ± 4.4 µM | Kd [11]: 56.4 ± 10.4 µM | Kd [12]: > 50 µM | Kd [13]: 21.0 ± 1.1 µM | Kd [14]: 33.3 ± 2.3 µM | Kd [15]: 17.3 ± 1.7 µM | Kd [16]: 31.4 ± 4 µM | Kd [17]: 16.5 ± 1.1 µM | Kd [18]: 48 ± 7.8 µM | Kd [19]: 52.0 ± 25.7 µM | Kd [20]: > >100 μM | Kd [21]: 4.6 ± 0.6 µM | Kd [22]: 10.0 ± 0.5 µM | Kd [23]: 1.1 ± 0.2 µM | Kd [24]: 5.6 ± 1.7 µM
Structure (SMILES): CCN1CCN(c2ccc3cc(-c4cn5cc(C)nc(C)c5n4)c(=O)oc3c2)C[C@@H]1C
